Among the data in patent publication US20250304576A1 (Cancer Research Technology Limited, priority 2022, published 2025) are Ki values, retold here.

Structures are written as SMILES.

The target in one assay is T1, Recombinant IKKα (Homo sapiens, UniProt O15111).
T1 construct: purchased Millipore, Dundee, UK
T1 sequence (O15111 1-745): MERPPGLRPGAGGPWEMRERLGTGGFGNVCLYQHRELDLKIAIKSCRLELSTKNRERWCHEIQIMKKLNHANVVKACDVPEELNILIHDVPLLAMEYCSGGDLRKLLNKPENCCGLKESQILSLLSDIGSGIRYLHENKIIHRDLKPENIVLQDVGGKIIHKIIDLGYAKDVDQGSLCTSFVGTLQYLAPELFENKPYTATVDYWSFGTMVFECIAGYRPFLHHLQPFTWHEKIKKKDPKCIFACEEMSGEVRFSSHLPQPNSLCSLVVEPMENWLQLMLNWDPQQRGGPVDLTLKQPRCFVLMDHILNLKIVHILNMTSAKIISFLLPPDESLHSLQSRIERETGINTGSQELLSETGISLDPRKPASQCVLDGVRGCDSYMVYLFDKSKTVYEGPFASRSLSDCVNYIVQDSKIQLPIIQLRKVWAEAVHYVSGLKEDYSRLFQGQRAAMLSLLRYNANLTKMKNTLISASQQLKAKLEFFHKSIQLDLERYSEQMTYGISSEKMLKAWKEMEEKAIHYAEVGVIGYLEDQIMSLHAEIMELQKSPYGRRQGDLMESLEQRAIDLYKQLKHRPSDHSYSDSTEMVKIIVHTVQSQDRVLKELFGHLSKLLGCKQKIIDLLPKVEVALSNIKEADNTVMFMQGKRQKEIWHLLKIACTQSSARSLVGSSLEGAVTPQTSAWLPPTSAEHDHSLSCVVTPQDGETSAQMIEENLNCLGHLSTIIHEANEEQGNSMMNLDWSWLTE
Put plainly: DELFIA IKKα kinase assay (apparent Ki, Cheng-Prusoff). The settings on record: non-italicised figure: DELFIA assay. In kind it is biochemical. The method, then: (§1) IKKα and IKKβ inhibitory activity was determined using three different assays: a dissociation enhanced ligand fluorescent immunoassay (DELFIA) based on the protocol of HTScan™ IKKβ Kinase Assay (Cell Signaling Technology, USA); an Adapta IKKα assay (performed by Life Technologies); a Z′-LYTE™ IKKβ assay (performed by Life Technologies).
(§2) Recombinant IKKα or IKKβ, 37 nM, (Millipore, Dundee, UK) was incubated with IηB-α (Ser32) (New England Biolabs, Hitchin, UK) biotinylated peptide substrate (0.375 μM) and 40 μM ATP in assay buffer (40 mM Tris-HCl (pH 7.5), 20 mM MgCl2, EDTA 1 mM, DTT 2 mM and BSA 0.01 mg/ml) in a V-well 96-well plate in the presence and absence of test compound. The assay plate was incubated for 60 minutes at 30° C. after which the kinase reaction was quenched by the addition of 50 mM EDTA, pH8. The resulting mixture was transferred to a streptavidin coated 96-well plate (Perkin Elmer, Beaconsfield, UK) and incubated for 1 hour at 30° C. to immobilise the substrate peptide. After three washes with wash buffer (0.01 M phosphate buffered saline (PBS), 0.05% Tween −20, pH 7.4) a primary antibody against the phosphorylated substrate (phospho-IηB-a) (Ser32/36) (5A5) Mouse mAb (New England Biolabs, Hitchin, UK) (1:1000 dilution with 1% bovine serum albumin (BSA) in wash buffer) was added and incubated at 37° C. for 2 h.
(§3) After a further three washes, a secondary europiated antibody (Eu-N1 labelled anti-mouse IgG, (Perkin Elmer, Beaconsfield, UK) diluted 1:500 in 1% BSA/wash buffer) was added and incubated at 30° C. for 30 minutes. After a further five washes, DELFIA enhancement solution—(Perkin Elmer, Beaconsfield UK) was added and allowed to incubate for 10 min at room temperature, protected from light, to facilitate the chemifluorescent detection. The relative fluorescence units (RFU) signal were measured on a Wallac Victor 1420 multilabel counter (Perkin Elmer, Beaconsfield, UK), in time-resolved fluorescence mode. The counter was set at an excitation wavelength of 340 nm with a 400 μs delay before detecting emitted light at 615 nm. The apparent Ki of the […] was calculated for each compound using the Cheng-Prusoff Equation.
(§4) The IKKα and IKKβ figures quoted in non-italicised form are from the DELFIA assay described above.

The target of the next assay is T2, Recombinant IKKβ (Homo sapiens, UniProt O14920).
T2 construct: purchased Millipore, Dundee, UK
T2 sequence (O14920 1-756): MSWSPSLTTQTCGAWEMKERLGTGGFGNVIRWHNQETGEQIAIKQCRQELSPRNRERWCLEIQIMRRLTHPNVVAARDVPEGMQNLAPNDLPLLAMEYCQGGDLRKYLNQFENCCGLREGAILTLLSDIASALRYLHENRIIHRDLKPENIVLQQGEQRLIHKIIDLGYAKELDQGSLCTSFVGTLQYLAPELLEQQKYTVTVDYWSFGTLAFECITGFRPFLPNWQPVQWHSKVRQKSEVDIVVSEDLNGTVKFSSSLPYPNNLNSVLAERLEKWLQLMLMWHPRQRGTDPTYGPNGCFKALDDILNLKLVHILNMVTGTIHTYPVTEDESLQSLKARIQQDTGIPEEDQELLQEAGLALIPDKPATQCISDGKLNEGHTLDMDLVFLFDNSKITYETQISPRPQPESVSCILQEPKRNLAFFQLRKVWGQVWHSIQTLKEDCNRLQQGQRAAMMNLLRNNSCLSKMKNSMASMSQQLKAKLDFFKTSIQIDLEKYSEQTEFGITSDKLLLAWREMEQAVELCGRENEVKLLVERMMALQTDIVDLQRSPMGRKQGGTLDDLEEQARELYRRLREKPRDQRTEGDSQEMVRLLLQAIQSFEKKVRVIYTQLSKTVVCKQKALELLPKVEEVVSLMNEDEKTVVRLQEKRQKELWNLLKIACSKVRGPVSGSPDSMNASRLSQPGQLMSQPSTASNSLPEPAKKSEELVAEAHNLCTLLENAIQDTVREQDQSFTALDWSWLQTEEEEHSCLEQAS
Description: DELFIA IKKβ kinase assay (apparent Ki, Cheng-Prusoff). Type of assay: biochemical. The note with it: non-italicised figure: DELFIA assay. Here is the method:
as §1, §2, §3, §4

`Nc1n[nH]c2ccc(-c3ccnc(NCC4CC4)c3)cc12` [Example 15, 5-(2-((Cycipropylmethyl)amino)pyridine-4-yl)-1H-indazol-3-amine]: the Ki on Recombinant IKKα is 171 nM; on Recombinant IKKβ, 796 nM.
For `CC(C)CCNc1cc(-c2ccc3[nH]nc(N)c3c2)ccn1` [Example 16, 5-(2-(Isopentylamino)pyridin-4-yl)-1H-indazol-3-amine], in that order: 65 nM and 838 nM.
For `CCCCCCNc1cc(-c2ccc3[nH]nc(N)c3c2)ccn1` [Example 17, 5-(2-(Hexylamino)pyridine-4-yl)-1H-indazol-3-amine] the same measures were 114 nM and 1340 nM.
For `Nc1n[nH]c2ccc(-c3ccnc(NC4CCCCC4)c3)cc12` [Example 18, 5-(2-(Cyclohexylamino)pyridine-4-yl)-1H-indazol-3-amine] the same measures were 571 nM and more than 10000 nM.
For the molecule `C[C@H]1CC[C@H](Nc2cc(-c3ccc4[nH]nc(N)c4c3)ccn2)CC1` [Example 19, 5-{2-[(Trans-4-methylcyclohexyl)amino]pyridin-4-yl}-1H-indazol-3-amine], the Ki at Recombinant IKKα is 170 nM; on Recombinant IKKβ, more than 10000 nM.
On to `Nc1n[nH]c2ccc(-c3ccnc(NCCO)c3)cc12` [Example 20, 2-((4-(3-Amino-1H-indazol-5-yl)pyridine-2-yl)amino)ethan-1-ol], for which the Ki on Recombinant IKKα stood at 46 nM; on Recombinant IKKβ, 630 nM.
For `Nc1n[nH]c2ccc(-c3ccnc(NCCCO)c3)cc12` [Example 21, 3-((4-(3-Amino-1H-indazol-5-yl)pyridine-2-yl)amino)propan-1-ol], in that order: 15 nM and 796 nM.
For `Nc1n[nH]c2ccc(-c3ccnc(NCCCCO)c3)cc12` [Example 22, 4-(4-(3-Amino-1H-indazol-5-yl)pyridin-2-ylamino)butan-1-ol], in that order: 22 nM and 1470 nM.
As for `Nc1n[nH]c2ccc(-c3ccnc(NCCCCCO)c3)cc12` [Example 23], the Ki was determined as 33 nM on Recombinant IKKα and 335 nM on Recombinant IKKβ.
For `Nc1n[nH]c2ccc(-c3ccnc(N[C@H]4CC[C@H](O)CC4)c3)cc12` [Example 24, 5-{2-[(Trans-4-hydroxycyclohexyl)amino]pyridin-4-yl}-1H-indazol-3-amine], in that order: 100 nM and more than 10000 nM.
For `COCCNc1cc(-c2ccc3[nH]nc(N)c3c2)ccn1` [Example 25, 5-(2-((2-Methoxyethyl)amino)pyridine-4-yl)-1H-indazol-3-amine] the same measures were 221 nM and more than 10000 nM.
For the molecule `COCCCNc1cc(-c2ccc3[nH]nc(N)c3c2)ccn1` [Example 26, 5-(2-((3-Methoxypropyl)amino)pyridine-4-yl)-1H-indazol-3-amine], the Ki turned out to be 34 nM at Recombinant IKKα and 754 nM at Recombinant IKKβ.
Consider `CC(C)OCCCNc1cc(-c2ccc3[nH]nc(N)c3c2)ccn1` [Example 27, 5-(2-((3-Isopropoxypropyl)amino)pyridin-4-yl)-1H-indazol-3-amine], for which the Ki at Recombinant IKKα was 76 nM; on Recombinant IKKβ it was 2510 nM.
For `Nc1n[nH]c2ccc(-c3ccnc(NCCCO)n3)cc12` [Example 28, 3-((4-(3-Amino-1H-indazol-5-yl)pyrimidin-2-yl)amino)propan-1-ol] the same measures were 65 nM and 460 nM.
For `CN(CCCO)c1cc(-c2ccc3[nH]nc(N)c3c2)ccn1` [Example 29, 3-((4-(3-Amino-1H-indazol-5-yl)pyridin-2-yl)(methyl)amino)propan-1-ol], the results for the Ki at Recombinant IKKα and at Recombinant IKKβ were 1900 nM and more than 10000 nM, respectively.
For `Nc1n[nH]c2ccc(-c3ccnc(NCCN4CCOCC4)c3)cc12` [Example 30, 5-(2-((2-Morpholinoethyl)amino)pyridine-4-yl)-1H-indazol-3-amine], in that order: 340 nM and 377 nM.
For `Nc1n[nH]c2ccc(-c3ccnc(NCCN4CCCCC4)c3)cc12` [Example 31, 5-(2-((2-(Piperidin-1-yl)ethyl)amino)pyridine-4-yl)-1H-indazol-3-amine] the same measures were 495 nM and more than 10000 nM.
